The text below walks through data of patent US20230241083A1, “FORMULATION COMPRISING CANNABINOIDS” (CANNOVEX BV, priority 2020, published 2023).

The structures appear in SMILES notation.

The series in a line: Stability study of THC in a receiver solution. In kind it is physicochemical. Conditions: receiver solution EtOH:H2O (50/50 vol); 3, 6, 8, 24, 30, 48 hours. An excerpt:
FIG. 2: Stability study of THC in a receiver solution.

On to `CCCCCc1cc(O)c2c(c1)OC(C)(C)[C@@H]1CCC(C)=C[C@@H]21` [THC, Delta-9-tetrahydrocannabinol], for which the “THC concentration over time in receiver solution (stability)” value was “does not decay over time”.
